According to the C3SDB collision cross section collection:
Counter-ions that a name gives are not always drawn.

Details: [M+H-H2O]+; instrument: TW; calibrated with polyalanine and drug standards

Row | collision cross section (N2) [Å²] | SMILES
1 | 210.6 | CC1(C)CC[C@]2(C(=O)O)CC[C@]3(C)C(=CC[C@@H]4[C@@]5(C)CC[C@H](O)[C@@](C)(CO)[C@@H]5CC[C@]43C)[C@@H]2C1 [HEDERAGENIN]
2 | 160.8 | NS(=O)(=O)c1cc2c(cc1Cl)NCNS2(=O)=O [HYDROCHLOROTHIAZIDE]

Row | SMILES | collision cross section (N2) [Å²]
3 | Cc1cc2c(C(C)C)c(O)c(O)c(C=O)c2c(O)c1-c1c(C)cc2c(C(C)C)c(O)c(O)c(C=O)c2c1O [GOSSYPOL] | 228.1

Same assay, conditions: [M+H]+; instrument: TW; calibrated with polyalanine and drug standards

Row | collision cross section (N2) [Å²] | SMILES
4 | 143.1 | CC(=O)Nc1ccc(OC(C)=O)cc1 [DIACETAMATE]
5 | 143.2 | CCN(CC)C(=O)c1cccc(C)c1 [DIETHYLTOLUAMIDE]
6 | 195 | O=C(CCCN1CC=C(n2c(=O)[nH]c3ccccc32)CC1)c1ccc(F)cc1 [DROPERIDOL]
7 | 177.4 | CCOC(=O)COc1ccc2c(=O)cc(-c3ccccc3)oc2c1 [EFLOXATE]
8 | 159.4 | Oc1ccc([C@H]2Oc3cc(O)cc(O)c3C[C@H]2O)cc1 [EPIAFZELECHIN (2R,3R)(-)]
9 | 170 | COc1ccc([C@H]2Oc3cc(OC)cc(OC)c3C[C@H]2O)cc1 [EPIAFZELECHIN TRIMETHYL ETHER]
10 | 200 | CC(C)(C)NC(=O)[C@H]1CC[C@H]2[C@@H]3CC[C@H]4NC(=O)C=C[C@]4(C)[C@H]3CC[C@]12C [FINASTERIDE]
11 | 160.7 | O=c1c(O)c(-c2ccc(O)c(O)c2)oc2cc(O)ccc12 [FISETIN]
12 | 160 | CC(C)C(=O)Nc1ccc([N+](=O)[O-])c(C(F)(F)F)c1 [FLUTAMIDE]
13 | 138.4 | O=C(O)c1ccccc1OP(=O)(O)O [FOSFOSAL]
14 | 159.2 | Cc1cccc(C)c1NC(=O)c1ccccc1C(=O)O [FTAXILIDE]
15 | 166.9 | O=C1OC(CN2CCOCC2)CN1/N=C/c1ccc([N+](=O)[O-])o1 (stereo unspecified) [FURALTADONE]
16 | 189.5 | COc1c(N2CCNC(C)C2)c(F)cc2c(=O)c(C(=O)O)cn(C3CC3)c12 (stereo unspecified) [GATIFLOXACIN]
17 | 178 | Cc1ccc(S(=O)(=O)NC(=O)NN2CC3CCCC3C2)cc1 (stereo unspecified) [GLICLAZIDE]
18 | 205.9 | COc1ccc(Cl)cc1C(=O)NCCc1ccc(S(=O)(=O)NC(=O)NC2CCCCC2)cc1 [GLYBURIDE]
19 | 146.3 | C[C@H]1CC[C@@H](C(C)(C)O)CC2=C1CC[C@@H]2C [GUAIOL(-)]
20 | 191.7 | O=C(CCCN1CCC(O)(c2ccc(Cl)cc2)CC1)c1ccc(F)cc1 [HALOPERIDOL]
21 | 179.9 | CC(=O)[C@@]1(O)CC[C@H]2[C@@H]3CCC4=CC(=O)CC[C@]4(C)[C@H]3CC[C@@]21C [HYDROXYPROGESTERONE]
22 | 134.4 | COc1ccc2c(C)cc(=O)oc2c1 [HYMECROMONE METHYL ETHER]
23 | 201.2 | CCCCC1=NC2(CCCC2)C(=O)N1Cc1ccc(-c2ccccc2-c2nn[nH]n2)cc1 [IRBESARTAN]

Continued, molecule first:

Row | SMILES | collision cross section (N2) [Å²]
24 | CC(C)(CO)[C@@H](O)C(=O)NCCCO [DEXPANTHENOL] | 144.1
25 | CC(=O)Nc1c(I)c(NC(C)=O)c(I)c(C(=O)O)c1I [DIATRIZOIC ACID] | 176.3
26 | Oc1ccc(Cl)cc1Cc1cc(Cl)ccc1O [DICHLOROPHENE] | 147.4
27 | O=c1oc2ccccc2c(O)c1Cc1c(O)c2ccccc2oc1=O [DICUMAROL] | 182
28 | CC(=O)OCC(=O)[C@@]1(OC(C)=O)[C@@H](C)C[C@H]2[C@@H]3C[C@H](F)C4=CC(=O)C=C[C@]4(C)[C@@]3(F)[C@@H](O)C[C@@]21C [DIFLORASONE DIACETATE] | 209.5
29 | COc1cc(OC)c(-c2c(OC)cc(OC)cc2OC)c(OC)c1 [DIFUCOL HEXAMETHYL ETHER] | 175.2
30 | C[C@]12CC[C@H](O)C[C@H]1CC[C@@H]1[C@@H]2C[C@@H](O)[C@]2(C)[C@@H](C3=CC(=O)OC3)CC[C@]12O [DIGOXIGENIN] | 195.1
31 | C[C@H]1O[C@@H](O[C@H]2[C@@H](O)C[C@H](O[C@H]3[C@@H](O)C[C@H](O[C@H]4CC[C@@]5(C)[C@H](CC[C@@H]6[C@@H]5C[C@@H](O)[C@]5(C)[C@@H](C7=CC(=O)OC7)CC[C@]65O)C4)O[C@@H]3C)O[C@@H]2C)C[C@H](O)[C@@H]1O [DIGOXIN] | 322.5
32 | C[C@@H]1CC[C@@]2(OC1)O[C@H]1C[C@H]3[C@@H]4CC=C5C[C@@H](O)CC[C@]5(C)[C@H]4CC[C@]3(C)[C@H]1[C@@H]2C [DIOSGENIN] | 208.4
33 | CC[C@H]1OC(=O)[C@H](C)[C@@H](O[C@H]2C[C@@](C)(OC)[C@@H](O)[C@H](C)O2)[C@H](C)[C@@H](O[C@@H]2O[C@H](C)C[C@H](N(C)C)[C@H]2O)[C@](C)(O)C[C@@H](C)[C@@H]2N[C@@H](COCCOC)O[C@H]([C@H]2C)[C@]1(C)O [DIRITHROMYCIN] | 284.2
34 | O=c1[nH]c2ccccc2n1CCCN1CCC(n2c(=O)[nH]c3cc(Cl)ccc32)CC1 [DOMPERIDONE] | 201.8
35 | C=CCOC(Cn1ccnc1)c1ccc(Cl)cc1Cl (stereo unspecified) [ENILCONAZOLE] | 165.2
36 | O=C(O[C@@H]1Cc2c(O)cc(O)cc2O[C@@H]1c1cc(O)c(O)c(O)c1)c1cc(O)c(O)c(O)c1 [EPIGALLOCATECHIN-3-MONOGALLATE] | 206.1
37 | Oc1cc(O)c2c(c1)O[C@H](c1cc(O)c(O)c(O)c1)[C@H](O)C2 [EPIGALLOCATECHIN] | 165.5
38 | CCc1cccc2c3c([nH]c12)C(CC)(CC(=O)O)OCC3 (stereo unspecified) [ETODOLAC] | 164.4
39 | CC(=O)OC1CCC2(C)C3=C(CC[C@H]2C1(C)C)[C@@]1(C)CC[C@@H]([C@@H](C)CCC=C(C)C)[C@]1(C)CC3 (stereo partly specified) [EUPHOL ACETATE] | 218
40 | CC(C)c1c(CN(C)C(C)Cc2ccccc2)n(C)n(-c2ccccc2)c1=O (stereo unspecified) [FAMPROFAZONE] | 190.9
41 | COc1cc(/C=C/C(=O)O)ccc1O [FERULIC ACID] | 128.8
42 | Nc1nc(F)nc2c1ncn2[C@@H]1O[C@H](COP(=O)(O)O)[C@@H](O)[C@@H]1O [FLUDARABINE PHOSPHATE] | 168.8

Row | SMILES | collision cross section (N2) [Å²]
43 | CC1(C)O[C@@H]2C[C@H]3[C@@H]4C[C@H](F)C5=CC(=O)C=C[C@]5(C)[C@H]4[C@@H](O)C[C@]3(C)[C@]2(C(=O)CO)O1 [FLUNISOLIDE] | 199.8
44 | Cc1cc(O)c(C=O)c2c1C(=O)Oc1c(COC(=O)/C=C/C(=O)O)c(O)c(C(=O)O)c(C)c1O2 [FUMARPROTOCETRARIC ACID] | 204.5
45 | O=c1c(O)c(-c2ccccc2)oc2cc(O)cc(O)c12 [GALANGIN] | 154.9
46 | O=C(O)c1cc(O)c(O)c(O)c1 [GALLIC ACID] | 130.9
47 | COC(=O)c1c(OC)cc2c(c1C)Oc1c(Cl)c(O)c(Cl)c(C)c1C(=O)O2 [GANGALEOIDIN] | 186.4
48 | N[C@@H](C(=O)O)[C@@H](O)[C@H](O)[C@H](O)CO [GLUCOSAMINIC ACID] | 138.8
49 | NC(N)=NC(=O)Cc1c(Cl)cccc1Cl [GUANFACINE] | 148.9
50 | CCOC(=O)c1c(C)cc(O)c(C=O)c1O [HAEMATOMMIC ACID, ETHYL ESTER] | 144
51 | Cc1nccc2c1[nH]c1ccccc12 [HARMANE] | 136.6
52 | CCCCC(CC)CN1CN(CC(CC)CCCC)CC(C)(N)C1 (stereo unspecified) [HEXETIDINE] | 194
53 | COc1ccc2c(c1)O[C@H]1c3ccc(OC)cc3OC[C@@H]21 [HOMOPTEROCARPIN] | 162.7
54 | CCN(CC)CCNc1ccc(CO)c2sc3ccccc3c(=O)c12 [HYCANTHONE] | 180.4
55 | CC[C@H]1CN2CC[C@H]1C[C@@H]2[C@@H](O)c1ccnc2ccc(OC)cc12 [HYDROQUINIDINE] | 176.7
56 | COC1=C(OC)C(=O)C(CCCCCCCCCCO)=C(C)C1=O [IDEBENONE] | 178.6
57 | O=C([O-])Cc1cnc[nH]1 [IMIDAZOL-4-YLACETIC ACID SODIUM SALT] | 120.7
58 | CCC(Cc1c(I)cc(I)c(N)c1I)C(=O)O (stereo unspecified) [IOPANIC ACID] | 172.7
59 | CC(C)Oc1ccc2c(=O)c(-c3ccccc3)coc2c1 [IPRIFLAVONE] | 164.3
60 | COc1cc(-c2coc3cc(O[C@@H]4O[C@H](CO)[C@@H](O)[C@H](O)[C@H]4O)c(OC)c(O)c3c2=O)cc(O)c1OC [IRIDIN] | 227.2
61 | COc1cc(-c2coc3cc(OC)c(OC)c(OC)c3c2=O)cc(OC)c1OC [IRIGENIN TRIMETHYL ETHER] | 195.4

Same assay, conditions: [M+Na]+; instrument: TW; calibrated with polyalanine and drug standards

Row | collision cross section (N2) [Å²] | SMILES
62 | 219.7 | CC(=O)Oc1cc2c(c(C)c1OC(C)=O)CC=C1[C@@]2(C)CC[C@@]2(C)C3C[C@](C)(C(=O)O)CC[C@]3(C)CC[C@]12C (stereo partly specified) [DIHYDROCELASTRYL DIACETATE]
63 | 216.6 | COC(=O)[C@@H]1OC(=O)C2OC23[C@@]1(C)CCC1[C@@]2(C)CCC(=O)C(C)(C)C2C[C@@H](OC(C)=O)[C@]13C (stereo partly specified) [DIHYDROGEDUNIC ACID, METHYL ESTER]
64 | 213.6 | O=C1[C@H](CC[C@H](O)c2ccc(F)cc2)[C@@H](c2ccc(O)cc2)N1c1ccc(F)cc1 [EZETIMIBE]
65 | 174.3 | OC[C@@H](O)[C@@H](O[C@@H]1O[C@H](CO)[C@@H](O)[C@H](O)[C@H]1O)[C@H](O)[C@@H](O)CO [GLUCITOL-4-GUCOPYANOSIDE]
66 | 161.4 | O=Cc1ccccc1O[C@@H]1O[C@H](CO)[C@@H](O)[C@H](O)[C@H]1O [HELICIN]
